The nature of one data set: Pharmacokinetics after intravenous and oral administration in rats. The data set is classed as in vivo. Particulars: Rats; iv dosing; dose 1 mg/kg (0.5 for Ex. 1, 10, 11, 35; 0.48 for Ex. 24). As for the experimental part: The LC/MS/MS system used in the analysis consists of an Agilent 1200 Series vacuum degasser, binary pump, well-plate autosampler, thermostatted column compartment, the Agilent G6430 Triple Quadrupole Mass Spectrometer with an electrosprayionization (ESI) source. Quantitative analysis was carried out using MRM mode. The parameters for MRM transitions are in the Table A.
An Agilent XDB-C18, 2.1×30 mm, 3.5 M column was used for the analysis. 5 L of the samples were injected. Analysis condition: The mobile phase was 0.1% formic acid in water (A) and 0.1% formic acid in methanol (B). The flow rate was 0.4 mL/min. And the gradient of Mobile phase was in the Table B.
Alternatively, an Agilent 6330 series LC/MS/MS spectrometer equipped with G1312A binary pumps, a G1367A autosampler and a G1314C UV detector were used in the analysis. An ESI source was used on the LC/MS/MS spectrometer. The analysis was done in positive ion mode as appropriate and the MRM transition for each analyte was optimized using standard solution. A Capcell MP-C18 100×4.6 mm I.D., […] column (Phenomenex, Torrance, Calif., USA) was used during the analysis. The mobile phase was 5 mM ammonia acetate, 0.1% MeOH in water (A): 5 mM ammonia acetate, 0.1% MeOH in acetonitrile (B) (70:30, v/v). The flow rate was 0.6 mL/min. Column was maintained at ambient temperature. 20 μL of the samples were injected.
The compounds disclosed herein are assessed in pharmacokinetic studies in mice, rats, dogs or monkeys. The compounds are administered as a water solution, 2% HPMC+1% TWEEN®80 in water solution, 5% DMSO+5% solutol in saline, 4% MC suspension or capsule. For the intravenous administration, the animals are generally given at 1 or 2 mg/kg dose. For the oral (p.o.) dosing, mice and rats are generally given 5 or 10 mg/kg dose, and dogs and monkeys are generally given 10 mg/kg dose. The blood samples (0.3 mL) are drawn at 0.25, 0.5, 1.0, 2.0, 3.0, 4.0, 6.0, 8.0, 12 and 24 h time points or 0.083, 0.25, 0.5, 1.0, 2.0, 4.0, 6.0, 8.0 and 24 h time points and centrifuged at 3,000 or 4000 rpm for 2 to 10 min. The plasma solutions are collected, stored at −20° C. or −70° C. until analyzed by LC/MS/MS as described above.
What is called CL/F is the apparent clearance, not corrected for the fraction that reaches the circulation. Take `CC[C@H](Nc1ncnc(N)c1-c1noc(C)n1)c1nc2cccc(C)c2c(=O)n1C1CC1`: the apparent clearance CL/F came to 40.3 mL/min/kg.
The same measure, in the same setting: then `CC[C@H](Nc1ncnc(N)c1-c1nnc(C)o1)c1nc2ccccc2c(=O)n1-c1ccccc1F` (single isomer, unassigned) [Ex. 24], with 70.5 mL/min/kg; and `CC[C@H](Nc1ncnc(N)c1-c1ncc(C)o1)c1nc2cccc(C)c2c(=O)n1-c1ccccc1C` (single isomer, unassigned) [Ex. 28], with 61.2 mL/min/kg; and `CC[C@H](Nc1ncnc(N)c1C1=N[C@@H](C)CO1)c1nc2cccc(Cl)c2c(=O)n1-c1ccccc1` [Ex. 6], with 110 mL/min/kg.
As for `CC[C@H](Nc1ncnc(N)c1-c1nnc(C)o1)c1nc2cccc(F)c2c(=O)n1C1CC1` [Ex. 25, (S)-2-(1-((6-amino-S-(5-methyl-1,3,4-oxadiazol-2-yl)pyrimidin-4-yl)amino)-propyl)-3-cyclopropyl-5-fluoroquinazolin-4(3H)-one], the CL/F was found to be 75.7 mL/min/kg. This CL/F and that of the compound before are within 1.5-fold of each other.
Same read-out and setting: the figure for `CC[C@H](Nc1ncnc(N)c1-c1nnc(C)o1)c1nc2cccc(-c3cnn(C)c3)c2c(=O)n1-c1ccccc1` [Ex. 73, (S)-2-(1-((6-amino-5-(5-methyl-1,3,4-oxadiazol-2-yl)pyrimidin-4-yl)amino)propyl)-5-(1-methyl-1H-pyrazol-4-yl)-3-phenylquinazolin-4(3H)-one] is 20.7 mL/min/kg.
`CC[C@H](Nc1ncnc(N)c1-c1nc(C)no1)c1nc2cccc(C)c2c(=O)n1-c1ccccc1C` (single isomer, unassigned) [Ex. 27]: the CL/F turned out to be 61.7 mL/min/kg.
`CC[C@H](Nc1ncnc(N)c1-c1nnc(C)o1)c1nc2cccc(Cl)c2c(=O)n1-c1ccccc1` [Ex. 1, (S)-2-(1-((6-amino-5-(5-methyl-1,3,4-oxadiazol-2-yl)pyrimidin-4-yl)amino)-propyl)-5-chloro-3-phenylquinazolin-4(3H)-one] came in with a CL/F of 47.3 mL/min/kg.
In turn, `CC[C@H](Nc1ncnc(N)c1-c1ncn(C)n1)c1nc2cccc(C)c2c(=O)n1C1CC1` [Ex. 18, (S)-2-(1-((6-amino-5-(1-methyl-1H-1,2,4-triazol-3-yl)pyrimidin-4-yl)amino)propyl)-3-cyclopropyl-5-methylquinazolin-4(3H)-one] returned a CL/F of 54.2 mL/min/kg. This CL/F and that of the compound before are within 1.5-fold of each other.
The compound `CC[C@H](Nc1ncnc(N)c1-c1ccccn1)c1nc2cccc(Cl)c2c(=O)n1C1CC1` [Ex. 11, (S)-2-(1-((6-amino-5-(pyridin-2-yl)pyrimidin-4-yl)amino)propyl)-5-chloro-3-cyclopropylquinazolin-4(3H)-one] came in with a CL/F of 4.83 mL/min/kg.
With `CC[C@H](Nc1ncnc(N)c1-c1ncn(C)n1)c1nc2cccc(C)c2c(=O)n1-c1ccccc1C` (single isomer, unassigned) [Ex. 30], the apparent clearance CL/F was found to be 70.5 mL/min/kg.
Still for that read-out and setting: the figure for `C[C@H](Nc1ncnc(N)c1-c1nnn(C)n1)c1nc2cccc(Cl)c2c(=O)n1C1CC1` [Ex. 42, (S)-2-(1-((6-amino-5-(2-methyl-2H-tetrazol-5-yl)pyrimidin-4-yl)amino)ethyl)-5-chloro-3-cyclopropylquinazolin-4(3H)-one] is 82 mL/min/kg.
Consider `CC[C@H](Nc1ncnc(N)c1-c1nc(C)no1)c1nc2cccc(Cl)c2c(=O)n1-c1ccccc1` [Ex. 3, (S)-2-(1-((6-amino-5-(3-methyl-1,2,4-oxadiazol-5-yl)pyrimidin-4-yl)amino)-propyl) 5-chloro-3-phenylquinazolin-4(3H)-one], for which the CL/F was determined as 70.8 mL/min/kg.
In turn, `CC[C@H](Nc1ncnc(N)c1-c1noc(C)n1)c1nc2ccccc2c(=O)n1-c1ccccc1F` displayed a CL/F of 118 mL/min/kg.
Regarding `Cc1nc(-c2c(N)ncnc2N[C@@H](C)c2nc3cccc(Cl)c3c(=O)n2C2CC2)no1` [Ex. 33, (S)-2-(1-((6-amino-5-(5-methyl-1,2,4-oxadiazol-3-yl)pyrimidin-4-yl)amino)-ethyl)-5-chloro-3-cyclopropylquinazolin-4(3H)-one], the CL/F worked out at 65.5 mL/min/kg. This CL/F is about 1.8-fold lower than that of the compound before.

Staying with this data set, now noted: rat, plasma, iv, 1 mg/kg.
As usually defined, the AUC(0-t) is exposure summed from dosing to a finite time, without extrapolation to infinity. High values mean high exposure, low ones low exposure. Broadly, the half-life is the time needed for the level to fall by half in the phase considered. For `CC[C@H](Nc1ncnc(N)c1-c1nnc(C)o1)c1nc2cccc(-c3cnn(C)c3)c2c(=O)n1-c1ccccc1` [Ex. 73, (S)-2-(1-((6-amino-5-(5-methyl-1,3,4-oxadiazol-2-yl)pyrimidin-4-yl)amino)propyl)-5-(1-methyl-1H-pyrazol-4-yl)-3-phenylquinazolin-4(3H)-one], the AUC(0-t) was 807 ng·h/mL and the half-life was 51 min.

The data set is the same for the next values; noted with them: rat, plasma, iv, 1 mg/kg; read-out: Vss.
On to `CC[C@H](Nc1ncnc(N)c1-c1nnc(C)o1)c1nc2cccc(-c3cnn(C)c3)c2c(=O)n1-c1ccccc1` [Ex. 73, (S)-2-(1-((6-amino-5-(5-methyl-1,3,4-oxadiazol-2-yl)pyrimidin-4-yl)amino)propyl)-5-(1-methyl-1H-pyrazol-4-yl)-3-phenylquinazolin-4(3H)-one], for which the Vd was 1.44 L/kg.

The data set is the same for the next values; noted with them: rat, plasma; Rats; oral (p.o.) generally 5 or 10 mg/kg versus iv dosing.
Consider `CC[C@H](Nc1ncnc(N)c1-c1nnc(C)o1)c1nc2cccc(-c3cnn(C)c3)c2c(=O)n1-c1ccccc1` [Ex. 73, (S)-2-(1-((6-amino-5-(5-methyl-1,3,4-oxadiazol-2-yl)pyrimidin-4-yl)amino)propyl)-5-(1-methyl-1H-pyrazol-4-yl)-3-phenylquinazolin-4(3H)-one], for which the bioavailability worked out at 104%.

The values above are taken from patent publication US9518046B2 (Calitor Sciences, LLC, priority 2015, dated 2016).
